# Results as given in publication PMC9027920, “Development of New Thiophene-Containing Triaryl Pyrazoline Derivatives as PI3Kγ Inhibitors” (Molecules, 2022).
# Experiments:
# [1] = system: HepG2 (human hepatocellular cancer cell line) cells; assay: anti-proliferation assay, MTT, HepG2 cells; type: cell-based; settings: read-out: GI50 HepG2γ
# Method: (§1) In this section, the anti-proliferation activity of the synthesized compounds 3a–3t was evaluated. Herein, HeLa (human epithelial cervical cancer cell line), HepG2 (human hepatoellular carcinoma cell line) and L02 (human normal hepatocyte line) cells were used. According to the affection on L02 cells, most of the tested compounds were low-toxic. […] Basically, many of the compounds in this series could inhibit the growth of HeLa and HepG2 cells effectively. The anti-proliferation inhibitory activity and the enzymatic inhibition potency indicated the consistent tendencies; the SAR of the observed anti-proliferation activity was also similar to that of the enzymatic inhibition, especially that of PI3Kγ inhibition; thus, the cellular inhibition might be caused by the effect on PI3K. […] Thus, HepG2 cells were selected to conduct further investigations at the protein level.
# (§2) In this section, the cells included HeLa (human epithelial cervical cancer cell line), HepG2 (human hepatocellular cancer cell line) and L02 (human normal hepatocyte line) to evaluate the anti-proliferation activity of the synthesized compounds. The cells were cultured in Dulbecco’s modified eagle medium (DMEM, Hyclone) with the addition of 10% fetal bovine serum (FBS, BI), 2 mmol/L L-glutamine, 100 units/mL penicillin-streptomycin (Sigma-Aldrich, Saint Louis, MO, USA), […] (Hyclone, Logan, UT, USA). The environment was 5% CO2 contained atmosphere at 37 °C. The tests of anti-proliferative activity were conducted under a standard method with the typical dye 3-(4,5-dimethylthiazol-2-yl)-2,5-diphenyltetrazolium bromide (MTT) in triplicate. The LX300 Epson Diagnostic micro-plate reader (Nagano, Japan) was used to record the absorbance at 570 nm (OD570).
# [2] = cytotoxicity, MTT, L02 cells; type: cell-based; settings: human, L02 cells (human normal hepatocyte line)
# Method: as §1, §2
# [3] = system: HeLa (human epithelial cervical cancer cell line) cells; assay: anti-proliferation assay, MTT, HeLa cells; type: cell-based
# Method: as §1, §2
# [4] = target: T1, PI3Kα (Homo sapiens, UniProt P42336); assay: competitive fluorescence polarization kinase activity assay, PI3Kα; type: biochemical; settings: fluorescence polarization kinase kit
# T1 construct: purchased Perkin–Elmer
# T1 sequence (P42336 whole entry, species assumed): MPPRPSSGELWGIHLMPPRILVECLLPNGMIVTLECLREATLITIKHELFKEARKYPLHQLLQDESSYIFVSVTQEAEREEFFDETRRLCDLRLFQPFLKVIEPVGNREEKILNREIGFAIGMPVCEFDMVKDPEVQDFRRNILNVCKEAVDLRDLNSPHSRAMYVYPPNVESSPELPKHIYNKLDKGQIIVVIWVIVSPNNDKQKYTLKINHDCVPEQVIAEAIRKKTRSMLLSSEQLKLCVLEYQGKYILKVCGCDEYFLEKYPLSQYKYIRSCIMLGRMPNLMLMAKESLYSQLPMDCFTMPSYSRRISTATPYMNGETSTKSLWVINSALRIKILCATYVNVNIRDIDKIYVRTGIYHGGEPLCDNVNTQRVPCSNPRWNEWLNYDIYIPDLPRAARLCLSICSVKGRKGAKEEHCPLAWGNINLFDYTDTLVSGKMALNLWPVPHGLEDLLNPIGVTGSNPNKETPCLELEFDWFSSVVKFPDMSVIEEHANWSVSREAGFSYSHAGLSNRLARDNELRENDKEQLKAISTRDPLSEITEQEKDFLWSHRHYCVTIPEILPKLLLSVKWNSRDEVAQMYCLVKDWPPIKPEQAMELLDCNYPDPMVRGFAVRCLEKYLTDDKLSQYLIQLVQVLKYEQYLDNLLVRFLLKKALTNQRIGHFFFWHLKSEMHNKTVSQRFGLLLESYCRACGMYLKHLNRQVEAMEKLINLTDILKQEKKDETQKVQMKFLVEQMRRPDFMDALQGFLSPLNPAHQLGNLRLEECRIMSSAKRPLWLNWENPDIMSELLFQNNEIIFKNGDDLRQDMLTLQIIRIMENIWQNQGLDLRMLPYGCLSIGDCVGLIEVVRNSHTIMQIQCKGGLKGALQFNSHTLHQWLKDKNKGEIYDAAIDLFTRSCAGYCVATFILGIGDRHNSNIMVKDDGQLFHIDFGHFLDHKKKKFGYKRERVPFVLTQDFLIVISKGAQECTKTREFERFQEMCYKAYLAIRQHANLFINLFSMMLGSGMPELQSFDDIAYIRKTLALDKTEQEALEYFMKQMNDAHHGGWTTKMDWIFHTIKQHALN
# T1 sequence (P27986 whole entry partner, species assumed): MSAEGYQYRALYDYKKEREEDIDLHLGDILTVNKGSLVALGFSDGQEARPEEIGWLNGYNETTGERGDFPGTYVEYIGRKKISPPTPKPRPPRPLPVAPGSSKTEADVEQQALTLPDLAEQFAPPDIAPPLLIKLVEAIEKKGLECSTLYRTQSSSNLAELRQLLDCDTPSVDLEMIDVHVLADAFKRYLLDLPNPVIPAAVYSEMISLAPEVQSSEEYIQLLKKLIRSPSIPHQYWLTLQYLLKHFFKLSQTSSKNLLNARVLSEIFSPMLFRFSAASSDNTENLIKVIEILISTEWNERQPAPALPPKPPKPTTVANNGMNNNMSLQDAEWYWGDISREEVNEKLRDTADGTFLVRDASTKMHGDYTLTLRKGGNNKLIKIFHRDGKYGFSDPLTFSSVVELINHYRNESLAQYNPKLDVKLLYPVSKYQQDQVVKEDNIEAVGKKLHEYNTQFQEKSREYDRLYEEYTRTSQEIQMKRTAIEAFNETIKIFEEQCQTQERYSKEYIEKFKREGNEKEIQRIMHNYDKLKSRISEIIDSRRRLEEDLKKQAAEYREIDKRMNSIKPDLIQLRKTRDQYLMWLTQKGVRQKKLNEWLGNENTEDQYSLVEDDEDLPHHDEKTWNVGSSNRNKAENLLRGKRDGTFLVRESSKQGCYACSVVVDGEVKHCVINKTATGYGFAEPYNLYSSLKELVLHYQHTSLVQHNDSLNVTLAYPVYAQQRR
# Text: (§3) Initially, we directly tested the inhibition potency of the synthesized compounds on PI3K by using competitive fluorescence polarization kinase kits, as mentioned in previous investigations. […] According to the significance and research maturity of the isoforms as referenced, the PI3Kα and PI3Kγ isoforms were preliminarily included here.
# (§4) The competitive fluorescence polarization kinase activity assay was used to test the inhibition potency on PI3K, as mentioned in previous investigations. In general, following the instruction of the Kit (Perkin–Elmer, Waltham, MA, USA), the 10 μL scale of PI3K activity reaction was conducted with the substrate diC8-PI(4,5)P2 in a solution containing 2.5 mM MgCl2, 5 mM HEPES, […] and 10 mM DTT at pH 7.0. Into the 10 μL reaction wells with 50 ng enzyme and […], different concentrations of the tested compounds were added, respectively. The mixture was incubated at room temperature for 3 h, and the reactions were then quenched. Afterwards, the phosphoinositide binding protein and the fluorescent dye-labeled phosphoinositide tracer were added in sequence. In the dark environment in 384-well black nonbinding plates (Corning, Corning, NY, USA), the further incubation lasted for 1 h. With appropriate filters, the polarization values of the corresponding dye were recorded to calculate the enzymatic activity of PI3K in this reacting procedure. This assay was universal for evaluating the activity of different PI3K isoforms.
# [5] = target: T2, PI3Kγ (Homo sapiens, UniProt P48736); assay: competitive fluorescence polarization kinase activity assay, PI3Kγ; type: biochemical; settings: for IC50: fluorescence polarization kinase kit
# T2 construct: purchased Perkin–Elmer
# T2 sequence (P48736 whole entry, species assumed): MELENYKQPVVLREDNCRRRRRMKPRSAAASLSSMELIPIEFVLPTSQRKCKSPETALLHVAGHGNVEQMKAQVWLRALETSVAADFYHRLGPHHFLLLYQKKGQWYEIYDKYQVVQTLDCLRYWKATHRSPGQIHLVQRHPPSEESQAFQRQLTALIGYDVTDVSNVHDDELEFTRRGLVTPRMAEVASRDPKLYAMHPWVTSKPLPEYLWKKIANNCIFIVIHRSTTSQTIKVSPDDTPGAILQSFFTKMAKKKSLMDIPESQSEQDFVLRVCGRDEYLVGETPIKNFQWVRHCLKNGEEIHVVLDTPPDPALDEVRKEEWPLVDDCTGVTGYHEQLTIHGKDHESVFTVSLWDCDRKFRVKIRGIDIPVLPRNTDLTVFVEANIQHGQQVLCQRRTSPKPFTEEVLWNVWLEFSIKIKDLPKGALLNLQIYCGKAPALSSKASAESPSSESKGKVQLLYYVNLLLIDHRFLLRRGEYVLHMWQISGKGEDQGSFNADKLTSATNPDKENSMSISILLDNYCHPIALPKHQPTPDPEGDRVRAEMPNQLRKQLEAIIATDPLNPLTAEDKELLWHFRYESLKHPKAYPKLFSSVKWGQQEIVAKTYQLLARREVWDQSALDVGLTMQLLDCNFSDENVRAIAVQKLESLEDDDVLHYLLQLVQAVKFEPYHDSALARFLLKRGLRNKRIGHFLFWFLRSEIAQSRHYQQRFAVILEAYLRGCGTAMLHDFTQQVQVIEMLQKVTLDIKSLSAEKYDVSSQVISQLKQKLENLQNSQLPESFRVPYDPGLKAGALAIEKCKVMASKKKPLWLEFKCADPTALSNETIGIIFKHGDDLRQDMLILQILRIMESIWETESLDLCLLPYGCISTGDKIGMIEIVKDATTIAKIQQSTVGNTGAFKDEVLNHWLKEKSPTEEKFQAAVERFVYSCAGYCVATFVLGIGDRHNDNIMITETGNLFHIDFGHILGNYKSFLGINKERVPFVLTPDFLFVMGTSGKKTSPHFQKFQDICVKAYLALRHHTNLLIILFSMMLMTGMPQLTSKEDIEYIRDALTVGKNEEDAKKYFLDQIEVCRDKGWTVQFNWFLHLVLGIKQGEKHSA
# Text: as §3, §4
# [6] = system: PI3K-mediated Akt phosphorylation in HepG2 cells; assay: Western blot of Akt and p-Akt in HepG2 cells; type: cell-based, human; settings: 24 h, 0, 0.25, 0.50, 1.00 μM, with increasing concentration
# Method: For the evaluation of PI3Kγ activity, the downstream signal of PI3Kγ should be checked. Commonly, in the PI3K-Akt-mTOR pathway, the activation of PI3K mediated the phosphorylation of Akt and then triggered the following biological events. Herein, Western blot was conducted to visualize the expression levels of Akt and p-Akt (phosphorylated Akt) in HepG2 cells after incubation with various concentrations of the top hit 3s (Figure 2). GAPDH was used as the internal reference to guarantee cell status. […] This meant that compound 3s has the potential to cause dose-dependent blocking on the PI3K-mediated Akt phosphorylation.
# According to the results of the anti-proliferation assay, HepG2 cells were chosen to be incubated with the compound 3s for 24 h. The cells were then trypsinized and collected. Afterwards, the extracting of the total proteins was conducted with a 1 × RIPA lysis buffer (1% NP-40, 50 mM Tris-HCl, 150 mM NaCl, 0.25% deoxycholic acid, 1 mM EDTA containing protease inhibitors PMSF, pH 7.4,) (Amresco, Solon, OH, USA). […]
# Figure 2 (A) The expression levels of Akt, phosphorylated Akt (p-Akt) and GAPDH in HepG2 cells incubated with various concentrations of compound 3s (0, 0.25, 0.50, 1.00 μM); (B) Quantitation analysis of the p-Akt level. Data were expressed as Mean ± SD (n = 3). * p < 0.05, ** p < 0.01 and *** p < 0.005 vs. the control.
# [7] = system: HCT-116 cells; design: method as in doi:10.1134/S1068162020030061; settings: cited from earlier work
# [8] = system: CACO-2 cells; design: method as in doi:10.1134/S1068162020030061; settings: cited from earlier work
# [9] = system: BHK cells; design: method as in doi:10.1134/S1068162020030061; settings: cited from earlier work
GI50 [1],melting point,GI50 [3],IC50 [4],IC50 [5],selectivity index ([5]; ratio of the IC50 values for PI3Kα and PI3Kγ),SMILES,CC50 [2],Akt level [6],p-Akt level [6],anti-tumor activity [7],anti-tumor activity [8],cytotoxicity [9]
5.55 ± 0.41 µM,104 to 106 °C,6.2 ± 0.22 µM,4.13 ± 0.062 µM,1.37 ± 0.055 µM,–,"COc1ccc(C(=O)N2N=C(c3ccc(C)c(C)c3)CC2c2cccs2)cc1OC (stereo not drawn) [3r, (3,4-Dimethoxyphenyl)(3-(3,4-dimethylphenyl)-5-(thiophen-2-yl)-4,5-dihydro-1H-pyrazol-1-yl)methanone]",52.5 ± 3.2 µM,–,–,–,–,–
12.9 ± 1.3 µM,138 to 140 °C,13.7 ± 1.1 µM,42.6 ± 2.9 µM,0.066 ± 0.005 µM,645,"COc1ccc(C(=O)N2N=C(c3ccc4c(c3)OCO4)CC2c2cccs2)cc1OC (stereo not drawn) [3s, (3-(Benzo[d][1,3]dioxol-5-yl)-5-(thiophen-2-yl)-4,5-dihydro-1H-pyrazol-1-yl)(3,4-dimethoxyphenyl)methanone]",181 ± 9 µM,almost remained unchanged,obvious decrease,–,–,–
110 ± 8.1 µM,77 to 79 °C,124 ± 9.7 µM,> 100 µM,9.15 ± 0.14 µM,–,"COc1ccc(C(=O)N2N=C(c3ccc(Br)cn3)CC2c2cccs2)cc1OC (stereo not drawn) [3t, (3-(5-Bromopyridin-2-yl)-5-(thiophen-2-yl)-4,5-dihydro-1H-pyrazol-1-yl)(3,4-dimethoxyphenyl)methanone]",> 300 µM,–,–,–,–,–
–,–,–,–,–,–,"CCOC(=O)c1sc(N2N=C(c3cccs3)CC2c2ccccc2)nc1C (stereo not drawn) [ethyl-4-methyl-2-(5-phenyl-3-(thiophen-2-yl)-4,5-dihydropyrazol-1-yl)thiazole-5-carboxylate]",–,–,–,potent anti-tumor activity,potent anti-tumor activity,no cytotoxicity
